Structures are written as SMILES. Several values for one entry are separate records, joined by “and”; a condition that tells them apart may be missing. Equal values may be shown once.

This assay has as its system Swiss mice, Sarcoma 180 sc, mean tumor weight T/C. Briefly: NCI In Vivo Anticancer Drug Screen. Data for tumor model Sarcoma 180 (subcutaneous) in Swiss mice. To be noted: endpoint: mean tumor weight, higher = larger tumour. The method in brief:
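Transplantable tumors were established in mice, compound was given, then survival or tumor size was recorded. The treated value was divided by the vehicle-control value.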

[1] abbreviates: dose: 62.5 mg/kg/injection, schedule: Q01DX007 (ip), vehicle: saline.
[2] abbreviates: dose: 125.0 mg/kg/injection, schedule: Q01DX007 (ip), vehicle: saline.

Consider `N#[N+]c1cnc([O-])[nH]c1=O`, for which the T/C (dose: 1.0 mg/kg/injection, schedule: Q01DX007 (ip), vehicle: carboxymethylcellulose (CMC)) is 103 % of control; the T/C (dose: 2.0 mg/kg/injection, schedule: Q01DX007 (ip), vehicle: carboxymethylcellulose (CMC)) was 102 % of control; the T/C (dose: 4.0 mg/kg/injection, schedule: Q01DX007 (ip), vehicle: carboxymethylcellulose (CMC)) is 105 % of control; the T/C (dose: 8.0 mg/kg/injection, schedule: Q01DX007 (ip), vehicle: carboxymethylcellulose (CMC)) was 95 % of control.
Regarding `COC(=O)C1(N)CCCC1`, the T/C is, setting by setting: (dose: 60.0 mg/kg/injection, schedule: Q01DX007 (ip), vehicle: carboxymethylcellulose (CMC)) 59 % of control; (dose: 90.0 mg/kg/injection, schedule: Q01DX007 (ip), vehicle: carboxymethylcellulose (CMC)) 42 % of control; (dose: 135.0 mg/kg/injection, schedule: Q01DX007 (ip), vehicle: carboxymethylcellulose (CMC)) 33 % of control; (dose: 202.0 mg/kg/injection, schedule: Q01DX007 (ip), vehicle: carboxymethylcellulose (CMC)) 20 % of control.
On to `COC12C(COC(N)=O)C3=C(C(=O)C(C)=C(N)C3=O)N1CC1C2N1C` (stereo not given), for which the T/C by setting is: (dose: 0.62 mg/kg/injection, schedule: Q#A X014 (ip), vehicle: carboxymethylcellulose (CMC)) 62 % of control; (dose: 1.25 mg/kg/injection, schedule: Q#A X014 (ip), vehicle: carboxymethylcellulose (CMC)) 123 % of control; (dose: 7.5 mg/kg/injection, schedule: Q#A X014 (ip), vehicle: carboxymethylcellulose (CMC)) 65 % of control; (dose: 15.0 mg/kg/injection, schedule: Q#A X014 (ip), vehicle: carboxymethylcellulose (CMC)) 6 % of control and 16 % of control and 25 % of control; (dose: 20.0 mg/kg/injection, schedule: Q#A X014 (ip), vehicle: carboxymethylcellulose (CMC)) 2 % of control.
With `O=C(Nc1ccc(N=Nc2ccc(S(=O)(=O)O)cc2)cc1)c1ccc(N=Nc2c(O)ccc3cc(S(=O)(=O)O)ccc23)cc1`, the T/C is, setting by setting: (dose: 12.5 mg/kg/injection, schedule: Q01DX007 (ip), vehicle: water) 103 % of control; (dose: 25.0 mg/kg/injection, schedule: Q01DX007 (ip), vehicle: water) 84 % of control; (dose: 50.0 mg/kg/injection, schedule: Q01DX007 (ip), vehicle: water) 67 % of control.
For the molecule `CC(=O)Nc1c(Cl)c(Cl)c2c(c1Cl)Cc1cc(F)ccc1-2`, the T/C is, setting by setting: under setting [1], 78 % of control; (dose: 111.0 mg/kg/injection, schedule: Q01DX007 (ip), vehicle: other) 24 % of control; (dose: 111.0 mg/kg/injection, schedule: Q#A X014 (ip), vehicle: saline) 31 % of control and 34 % of control; under setting [2], 81 % of control; (dose: 166.5 mg/kg/injection, schedule: Q#A X014 (ip), vehicle: saline) 28 % of control and 31 % of control; (dose: 250.0 mg/kg/injection, schedule: Q#A X014 (ip), vehicle: saline) 18 % of control and 35 % of control. For the same molecule, the T/C (dose: 333.0 mg/kg/injection, schedule: Q01DX007 (ip), vehicle: other) is 36 % of control; the T/C (dose: 375.0 mg/kg/injection, schedule: Q#A X014 (ip), vehicle: saline) is 21 % of control; the T/C (dose: 500.0 mg/kg/injection, schedule: Q01DX007 (ip), vehicle: other) is 39 % of control; the T/C (dose: 750.0 mg/kg/injection, schedule: Q01DX007 (ip), vehicle: other) is 32 % of control.
`CC(C)=C(Br)CC[C@@H](C)[C@H]1CC[C@@]2(C)C3=C(CC[C@]12C)[C@@]1(C)CC[C@H](O)C(C)(C)[C@@H]1CC3`: the T/C runs as follows: (dose: 62.0 mg/kg/injection, schedule: Q01DX007 (sc), vehicle: steriod suspending solution) 109 % of control; (dose: 125.0 mg/kg/injection, schedule: Q01DX007 (sc), vehicle: steriod suspending solution) 97 % of control; (dose: 500.0 mg/kg/injection, schedule: Q01DX007 (sc), vehicle: steriod suspending solution) 183 % of control.
As for `CCCCCC[C@@H](O)C/C=C\CCCCCCCC(=O)O`, the T/C is 59 % of control (dose: 31.3 mg/kg/injection, schedule: Q01DX007 (ip), vehicle: saline); 95 % of control under setting [1]; 87 % of control under setting [2].
Take `CCCCN(CCCC)C(=O)c1[nH]cnc1N`: the T/C was 55 % of control (dose: 100.0 mg/kg/injection, schedule: Q01DX007 (ip), vehicle: carboxymethylcellulose (CMC)); 58 % of control (dose: 200.0 mg/kg/injection, schedule: Q01DX007 (ip), vehicle: carboxymethylcellulose (CMC)); 87 % of control (dose: 250.0 mg/kg/injection, schedule: Q01DX007 (ip), vehicle: carboxymethylcellulose (CMC)); 57 % of control (dose: 375.0 mg/kg/injection, schedule: Q01DX007 (ip), vehicle: carboxymethylcellulose (CMC)).
With `C=CN1CCCC1=O`, the T/C (dose: 93.0 mg/kg/injection, schedule: Q01DX007 (ip), vehicle: saline) was 106 % of control; the T/C (dose: 98.0 mg/kg/injection, schedule: Q01DX007 (ip), vehicle: saline) is 70 % of control; the T/C (dose: 100.0 mg/kg/injection, schedule: Q01DX007 (ip), vehicle: saline) was 57 % of control; the T/C (dose: 124.0 mg/kg/injection, schedule: Q01DX007 (ip), vehicle: saline) is 80 % of control; the T/C (dose: 148.0 mg/kg/injection, schedule: Q01DX007 (ip), vehicle: saline) was 65 % of control; the T/C (dose: 150.0 mg/kg/injection, schedule: Q01DX007 (ip), vehicle: saline) was 78 % of control. Besides, the T/C is 84 % of control (dose: 166.0 mg/kg/injection, schedule: Q01DX007 (ip), vehicle: saline); 9 % of control (dose: 500.0 mg/kg/injection, schedule: Q01DX007 (ip), vehicle: saline); 20 % of control (dose: 750.0 mg/kg/injection, schedule: Q01DX007 (ip), vehicle: saline).

These data come from PubChem BioAssay AID342 (DTP/NCI, 2004).
